Experimental data as given in ChEMBL document CHEMBL5614424, “Natural Product-Inspired Discovery of Naphthoquinone-Furo-Piperidine Derivatives as Novel STAT3 Inhibitors for the Treatment of Triple-Negative Breast Cancer” (J Med Chem, 2024).
pIC50: −log10 of the molar value. Each block holds one compound with its values, some of them ahead of it. Activity calls are given as the source filed them. The rule behind the calls is not given here. Peptide text beside a SMILES is read from it. * marks the point of attachment. Cbz = O=C(OCc1ccccc1)*; CH2F = FC*

Experiments:
MDA-MB-468 [1] = assay: Induction of apoptosis in human MDA-MB-468 cells assessed as up-regulation of cleaved Bax at 2.5 to 5 uM measured after 24 hrs by Western blotting analysis; assay type: functional, cell-based; conditions: dose 2.5-5 µM
MDA-MB-231 [2] = assay: In vivo antitumor activity against human MDA-MB-231 cells xenografted in Female BALB/c-nude assessed as up-regulation of C-Caspase 3 expression in tumor tissue at 15 to 30 mg/kg, ip once daily for 21 consecutive days by […]; assay type: functional, organism-based; conditions: dose 15-30 mg/kg, time 21.0 day
MDA-MB-468 [3] = assay: Induction of apoptosis in human MDA-MB-468 cells assessed as up-regulation of cleaved caspase 3 at 2.5 to 5 uM measured after 24 hrs by Western blotting analysis; assay type: functional, cell-based; conditions: dose 2.5-5 µM
MDA-MB-231 [4] = assay: Decrease in STAT5 expression level in human MDA-MB-231 cell cytoplasm at 1.25 to 5 uM measured after 24 hrs by Western blot analysis; assay type: functional, cell-based; conditions: dose 1.25-5 µM
MDA-MB-231 [5] = assay: Induction of apoptosis in human MDA-MB-231 cells assessed as down-regulation of cleaved […] at 2.5 to 5 uM measured after 24 hrs by Western blotting analysis; assay type: functional, cell-based; conditions: dose 2.5-5 µM
MDA-MB-468 [6] = assay: Induction of apoptosis in human MDA-MB-468 cells assessed as down-regulation of cleaved Bcl-2 at 2.5 to 5 uM measured after 24 hrs by Western blotting analysis; assay type: functional, cell-based; conditions: dose 2.5-5 µM
[7] = target: T1, Signal transducer and activator of transcription 5A (Homo sapiens) (UniProt P42229); assay: Inhibition of STAT5 activation in human MDA-MB-231 cell assessed as decrease in […] level at 1.25 to 5 uM measured after 24 hrs by Western blot analysis; assay type: cell-based; conditions: dose 1.25-5 µM
T1 sequence (whole entry): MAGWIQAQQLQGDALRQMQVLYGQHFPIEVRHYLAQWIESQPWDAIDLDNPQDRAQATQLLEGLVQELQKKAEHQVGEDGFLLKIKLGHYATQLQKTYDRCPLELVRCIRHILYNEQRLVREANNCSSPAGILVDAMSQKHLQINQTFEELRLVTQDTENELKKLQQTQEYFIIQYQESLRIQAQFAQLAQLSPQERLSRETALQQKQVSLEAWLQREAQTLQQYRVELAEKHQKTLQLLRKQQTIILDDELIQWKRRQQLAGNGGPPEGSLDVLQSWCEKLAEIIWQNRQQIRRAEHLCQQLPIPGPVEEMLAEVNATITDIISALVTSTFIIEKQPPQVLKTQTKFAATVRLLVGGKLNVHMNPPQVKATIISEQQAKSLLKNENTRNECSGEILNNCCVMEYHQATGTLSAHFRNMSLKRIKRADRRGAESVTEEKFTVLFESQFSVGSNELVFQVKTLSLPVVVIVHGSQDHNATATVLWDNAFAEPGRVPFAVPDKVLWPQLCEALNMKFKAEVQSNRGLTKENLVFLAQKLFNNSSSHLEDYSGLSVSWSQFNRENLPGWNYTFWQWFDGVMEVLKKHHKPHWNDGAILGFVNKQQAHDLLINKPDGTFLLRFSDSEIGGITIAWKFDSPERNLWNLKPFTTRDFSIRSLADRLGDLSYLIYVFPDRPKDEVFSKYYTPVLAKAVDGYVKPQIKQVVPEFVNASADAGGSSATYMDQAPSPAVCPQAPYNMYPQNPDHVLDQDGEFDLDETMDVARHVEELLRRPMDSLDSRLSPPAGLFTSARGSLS

MDA-MB-231 [8] = assay: In vivo antitumor activity against human MDA-MB-231 cells xenografted in Female BALB/c-nude assessed as down-regulation of p-STAT3 expression in tumor tissue at 15 to 30 mg/kg, ip once daily for 21 consecutive days by […]; assay type: functional, organism-based; conditions: dose 15-30 mg/kg, time 21.0 day
MDA-MB-231 [9] = assay: Induction of apoptosis in human MDA-MB-231 cells assessed as up-regulation of cleaved Bax at 2.5 to 5 uM measured after 24 hrs by Western blotting analysis; assay type: functional, cell-based; conditions: dose 2.5-5 µM
MDA-MB-231 [10] = assay: Induction of apoptosis in human MDA-MB-231 cells assessed as up-regulation of cleaved caspase 9 at 2.5 to 5 uM measured after 24 hrs by Western blotting analysis; assay type: functional, cell-based; conditions: dose 2.5-5 µM
MDA-MB-468 [11] = assay: Decrease in STAT5 expression level in human MDA-MB-468 cell cytoplasm at 1.25 to 5 uM measured after 24 hrs by Western blot analysis; assay type: functional, cell-based; conditions: dose 1.25-5 µM
MDA-MB-231 [12] = assay: Inhibition of colony formation in human MDA-MB-231 cells assessed as reduction in colony number and size at 1.25 to 5 uM by plate colony formation assay; assay type: functional, cell-based; conditions: dose 1.25-5 µM
MDA-MB-231 [13] = assay: Decrease in STAT5 expression level in human MDA-MB-231 cell nucleus at 1.25 to 5 uM measured after 24 hrs by Western blot analysis; assay type: functional, cell-based; conditions: dose 1.25-5 µM
MDA-MB-231 [14] = assay: Inhibition of cell migration in human MDA-MB-231 cells assessed as decrease in wound closure rate at 5 uM incubated for 6 to 24 hrs by wound healing assay; assay type: functional, cell-based; conditions: time 6-24 hrs
[15] = target: T2, Signal transducer and activator of transcription 1-alpha/beta (Homo sapiens) (UniProt P42224); assay: Inhibition of STAT1 activation in human MDA-MB-231 cell assessed as decrease in phosphorylated STAT1 (Tyr701) level at 1.25 to 5 uM measured after 24 hrs by Western blot analysis; assay type: cell-based; conditions: dose 1.25-5 µM
T2 sequence (whole entry): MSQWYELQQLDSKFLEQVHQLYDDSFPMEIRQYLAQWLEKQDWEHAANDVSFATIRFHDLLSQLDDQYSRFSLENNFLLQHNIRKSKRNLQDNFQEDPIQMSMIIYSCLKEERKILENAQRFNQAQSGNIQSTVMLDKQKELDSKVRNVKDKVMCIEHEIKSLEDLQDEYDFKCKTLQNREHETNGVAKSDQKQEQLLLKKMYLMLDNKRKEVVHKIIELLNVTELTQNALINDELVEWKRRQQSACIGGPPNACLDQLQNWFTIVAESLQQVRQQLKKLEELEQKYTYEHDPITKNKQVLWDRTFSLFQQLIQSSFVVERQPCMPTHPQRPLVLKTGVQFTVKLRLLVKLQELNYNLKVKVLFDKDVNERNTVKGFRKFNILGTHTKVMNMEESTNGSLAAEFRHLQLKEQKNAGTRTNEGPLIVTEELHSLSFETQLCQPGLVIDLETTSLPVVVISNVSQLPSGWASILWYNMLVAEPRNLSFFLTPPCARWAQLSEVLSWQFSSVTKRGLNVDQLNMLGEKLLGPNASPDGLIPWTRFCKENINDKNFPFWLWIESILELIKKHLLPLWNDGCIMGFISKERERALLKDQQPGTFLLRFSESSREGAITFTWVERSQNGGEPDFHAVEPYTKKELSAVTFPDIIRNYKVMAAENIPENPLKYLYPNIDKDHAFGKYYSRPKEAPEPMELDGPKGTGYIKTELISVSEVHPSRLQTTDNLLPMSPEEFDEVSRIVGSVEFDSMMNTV

MDA-MB-231 [16] = assay: Induction of apoptosis in human MDA-MB-231 cells assessed as up-regulation of cleaved caspase 3 at 2.5 to 5 uM measured after 24 hrs by Western blotting analysis; assay type: functional, cell-based; conditions: dose 2.5-5 µM
MDA-MB-468 [17] = assay: Induction of apoptosis in human MDA-MB-468 cells assessed as […] at 2.5 to 5 uM measured after 24 hrs by Western blotting analysis; assay type: functional, cell-based; conditions: dose 2.5-5 µM
MDA-MB-231 [18] = assay: Anti-invasion ability in human MDA-MB-231 cells assessed as reduction in cell invasion and migration ability rate incubated for 24 hrs by Boyden chamber transwell assay; assay type: functional, cell-based; conditions: dose 1.25-5 µM
MDA-MB-468 [19] = assay: Induction of apoptosis in human MDA-MB-468 cells assessed as up-regulation of cleaved caspase 9 at 2.5 to 5 uM measured after 24 hrs by Western blotting analysis; assay type: functional, cell-based; conditions: dose 2.5-5 µM
MDA-MB-231 [20] = assay: Induction of apoptosis in human MDA-MB-231 cells assessed as down-regulation of cleaved Bcl-2 at 2.5 to 5 uM measured after 24 hrs by Western blotting analysis; assay type: functional, cell-based; conditions: dose 2.5-5 µM
MDA-MB-468 [21] = assay: Decrease in STAT5 expression level in human MDA-MB-468 cell nucleus at 1.25 to 5 uM measured after 24 hrs by Western blot analysis; assay type: functional, cell-based; conditions: dose 1.25-5 µM
MDA-MB-231 [22] = assay: In vivo antitumor activity against human MDA-MB-231 cells xenografted in Female BALB/c-nude assessed as increase in TUNEL positive cells in tumor tissue at 15 to 30 mg/kg, ip once daily for 21 consecutive days by TUNEL cell apoptosis assay; assay type: functional, organism-based; conditions: dose 15-30 mg/kg, time 21.0 day
MDA-MB-231 [23] = assay: Induction of apoptosis in human MDA-MB-231 cells assessed as late apoptotic cells at 10 uM measured after 24 hrs incubation by the annexin V/propidium iodide (PI) double staining assay (reference value: 3.08%); assay type: functional
MDA-MB-231 [24] = assay: Induction of apoptosis in human MDA-MB-231 cells assessed as early apoptotic cells at 10 uM measured after 24 hrs incubation by the annexin V/propidium iodide (PI) double staining assay (reference value: 2.37%); assay type: functional
MDA-MB-468 [25] = assay: Induction of apoptosis in human MDA-MB-468 cells assessed as late apoptotic cells at 10 uM measured after 24 hrs incubation by the annexin V/propidium iodide (PI) double staining assay (reference value: 4.33%); assay type: functional
MDA-MB-468 [26] = assay: Induction of apoptosis in human MDA-MB-468 cells assessed as early apoptotic cells at 10 uM measured after 24 hrs incubation by the annexin V/propidium iodide (PI) double staining assay (reference value: 2.36%); assay type: functional
MDA-MB-468 [27] = assay: Induction of apoptosis in human MDA-MB-468 cells assessed as early apoptotic cells at 5 uM measured after 24 hrs incubation by the annexin V/propidium iodide (PI) double staining assay (reference value: 3.98%); assay type: functional
MDA-MB-231 [28] = assay: Induction of apoptosis in human MDA-MB-231 cells assessed as late apoptotic cells at 5 uM measured after 24 hrs incubation by the annexin V/propidium iodide (PI) double staining assay (reference value: 2.69%); assay type: functional
MDA-MB-468 [29] = assay: Induction of apoptosis in human MDA-MB-468 cells assessed as late apoptotic cells at 5 uM measured after 24 hrs incubation by the annexin V/propidium iodide (PI) double staining assay (reference value: 3.64%); assay type: functional
MDA-MB-231 [30] = assay: Antiproliferative activity against human MDA-MB-231 cells assessed as cell viability incubated for 48 hrs measured after additional incubation with MTT; assay type: functional, cell-based; conditions: MDA-MB-231, 48 h
MDA-MB-231 [31] = assay: Induction of apoptosis in human MDA-MB-231 cells assessed as early apoptotic cells at 5 uM measured after 24 hrs incubation by the annexin V/propidium iodide (PI) double staining assay (reference value: 2.46%); assay type: functional
MDA-MB-468 [32] = assay: Antiproliferative activity against human MDA-MB-468 cells assessed as cell viability incubated for 48 hrs measured after additional incubation with MTT; assay type: functional, cell-based; conditions: MDA-MB-468, 48 h
[33] = Antiproliferative activity against human MCF-10A cells assessed as cell viability incubated for 48 hrs measured after additional incubation with MTT; assay type: toxicity, cell-based

- inhibition [7]: inactive
- inhibition [15]: inactive
SMILES: CC(C)C[C@@H](CO)N1CCc2c(oc3c2C(=O)C(=O)c2ccccc2-3)C1
- Activity (MDA-MB-468 [1]): Active
- Activity (MDA-MB-231 [2]): Active
- Activity (MDA-MB-468 [3]): Active
- Activity (MDA-MB-231 [4]): inactive
- Activity (MDA-MB-231 [5]): Active
- Activity (MDA-MB-468 [6]): Active
- Activity (MDA-MB-231 [8]): Active
- Activity (MDA-MB-231 [9]): Active
- Activity (MDA-MB-231 [10]): Active
- Activity (MDA-MB-468 [11]): inactive
- inhibition (MDA-MB-231 [12]): Active
- Activity (MDA-MB-231 [13]): Active
- inhibition (MDA-MB-231 [14]): Active
- Activity (MDA-MB-231 [16]): Active
- Activity (MDA-MB-468 [17]): Active
- Activity (MDA-MB-231 [18]): Dose-Dependent Effect
- Activity (MDA-MB-468 [19]): Active
- Activity (MDA-MB-231 [20]): Active
- Activity (MDA-MB-468 [21]): Active
- Activity (MDA-MB-231 [22]): Active

SMILES: CC(C)[C@H](NC(=O)OCc1ccccc1)C(=O)N[C@@H](C)C(=O)N[C@@H](CC(=O)O)C(=O)CF (Cbz-Val-Ala-Asp-CH2F)
- Activity (MDA-MB-231 [23]): 2.63%
- Activity (MDA-MB-231 [24]): 2.76%
- Activity (MDA-MB-468 [25]): 2.19%
- Activity (MDA-MB-468 [26]): 5.02%

- pIC50 (MDA-MB-231 [30]): 5.53
- pIC50 (MDA-MB-468 [32]): 5.28
SMILES: CC(=O)c1cc2c(o1)C(=O)c1ccccc1C2=O [NAPABUCASIN]
- Activity (MDA-MB-468 [27]): 6.32%
- Activity (MDA-MB-231 [28]): 12.07%
- Activity (MDA-MB-468 [29]): 10%
- Activity (MDA-MB-231 [31]): 4.76%
- IC50 at 48 h [33]: 7.94 µM
